From patent US8563742B2, “Substituted aminothiazole derivatives, pharmaceutical compositions, and methods of use” (High Point Pharmaceuticals, LLC, priority 2008, dated 2013)
Where no end group is shown, it is not given here.

Key:
[1] = rat, in vivo, po, 5 mg/kg; for Plasma:Brain Ratio: male, Sprague Dawley, 2 h
Experimental: (§2) Pharmacokinetic screening in rats was performed on various compounds to measure brain to plasma ratio at 2 hour time point. […] The parameters for the pharmacokinetic protocol were as follows.
Amount of compound: 5 mg/kg
(§3) Species: Rat; Strain: Sprague Dawley; Sex: Male
Diet Status: Overnight fasting
(§4) Number of Animals (n) for each time point: 2
(§5) Formulation: 0.1% CMC, 0.25% Tween 80 in distilled water
(§6) Each formulation was administered once by oral gavage using a gavage needle (18G-3, BrainTree Scientific, INC, USA) attached to a syringe. The dose volume was 5 mL/kg for all animals. The actual volume administered to each animal was calculated and adjusted based on the most recent body weight.
(§7) Blood samples (approximately 300 μL whole blood) was collected from each animal via tail vein except for terminal blood samples. Terminal blood samples were collected via cardiac puncture. All samples were collected into tubes containing lithium heparin (Multivette 600 LH-Gel, Sarstedt, Newton, N.C., USA). Following collection, the tubes were placed in refrigerator (maximum 30 minutes) or until centrifugation under refrigeration (at 2 to 8° C.) at 5000 g for 7 minutes. Each harvested plasma sample was then transferred into 1.2 mL polypropylene tubes, on the 96-Well Plate according to the 96-Well Plate plasma sample map and kept in freezer. Plasma samples were then analyzed for test substances.
(§8) Brain samples were collected immediately after the rats were euthanised at designated time points. Brain samples were rinsed with saline, blotted dry, and weighed. Brain samples were placed into individual containers and kept in freezer (−20° C.). Brain samples were then analyzed for test articles.
(§9) After analysis, all the plasma results were reported as ng/mL and brain sample results are reported as ng/g.

in vivo = settings: male, Sprague Dawley, rat, po, 5 mg/kg
Experimental: as §2
Amount of compound: 5 mg/kg
as §3
Diet Status: Overnight fasting
as §4, §5, §6, §7, §8, §9

human MC-4R = target: T1, human MC-4R (Homo sapiens, UniProt P32245); assay: Biological Assay: inhibition of AgRP functional interaction with MC-4R in presence of αMSH (cAMP production); format: cell-based; settings: HEK293 cells expressing human MC-4R, AgRP83-132 and αMSH present; read-out: Average EC50 (nM) in Biological Assay
T1 construct: expressed in transfected cells
Procedure, shortened: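 HEK293 cells stably expressing human MC-4R (20,000/well) in EBSS/HEPES pH 7.4 with 0.5 mM IBMX. Compounds preincubated 30 min at room temperature with human AgRP83-132, then cells added and stimulated with αMSH 30 min at 37 °C. Intracellular cAMP measured after lysis; inhibition of AgRP seen as increased cAMP.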

[2] = Stability in Liver Microsomes (dog); format: in vitro ADME; settings: 1 μM, 0.5 mg protein/mL, NADPH, 60 minutes, 37° C., pH 7.4
Experimental: (§1) Various compounds were tested for their stability in human, monkey, dog, rat, and mouse liver microsomes. At a final concentration of 1 μM, compounds were incubated with either human, monkey, dog, rat, or mouse liver microsomes (0.5 mg protein/mL) in the presence of an NADPH-solution for 60 minutes at 37° C., pH 7.4 in phosphate buffer. Incubations were performed in duplicate. Reactions were terminated by the addition of methanol. The incubation solution was vortexed and transferred into a 96-well plate. The plate was sealed and centrifuged at approximately 3500 rpm for approximately 10 minutes. After centrifugation, the plate was loaded into 96-well plate autosampler and analyzed by LC/MS. Values are reported as percent of compound remaining after 1 hour.

[3] = Stability in Liver Microsomes (monkey); format: in vitro ADME; settings: 1 μM, 0.5 mg protein/mL, NADPH, 60 minutes, 37° C., pH 7.4
Experimental: as §1

OVX rats = assay: Sexual Behavior, sub-chronic regimen in OVX rats; format: in vivo, Rat; settings: 30 mg/kg/day PO, 5 days
Experimental: Rats were ovariectomized (OVX) under ketamine/xylazine anesthesia with 8 rats per group. OVX rats were then administered estradiol benzoate (10 micrograms) 48 hours and progesterone (500 micrograms) 4 hours before five baseline tests of sexual behavior with sexually vigorous stud males. Tests were 30 minutes in duration and were conducted at 4-day intervals. All females developed normal rates of appetitive and consummatory sexual behavior. Following this baseline test phase, females were switched to an estrogen-alone baseline phase, during which they were administered estradiol benzoate (10 micrograms) 48 hours before tests of sexual behavior with sexually vigorous males. These tests were conducted at 14-day intervals, to assure low rates of appetitive responding (e.g., solicitations, hops and darts). After the second test, females were assigned randomly to 4 groups, a saline control, two doses of Example 7 antagonist (10 and 30 mg/kg, PO), and a positive control using melanotan II (MT-II) (1 mg/kg, SC). The saline control and Example 7 were gavaged daily for 5 days prior to the test. The MT-II control was injected acutely 5 min prior to the test. The test was recorded on video and scored by a technician blind to which drug the animals were receiving. Behaviors were subjected to one-way ANOVAs. For each significant effect, posthoc tests were conducted on the means using the Tukey method, P<0.05.

[4] = tested on: adult male Sprague Dawley rats; assay: Feeding Study (icv AgRP, food intake and body weight); format: in vivo, Rat
Experimental: 27 adult male Sprague Dawley rats (Charles River Laboratories) were implanted with right lateral cerebral ventricular cannulas and allowed to recover for one week. After one week, animals were then randomized into 4 groups that were matched for food intake and body weight: water gavage-icv saline (n=6); Example 7 gavage-icv saline (n=7); water gavage-icv AgRP (n=7); Example 7 gavage-icv AgRP (n=7). Water or Example 7 (30 mg/kg) was administered at by oral gavage followed by icv injection of either saline or 0.2 nmol human AgRP 83-132. AgRP stimulated food intake and body weight gain over the next 24 h compared to saline controls. Both of these effects of AgRP were blocked by injection administration of Example 7.
On day 2 a second dose of Example 7 (30 mg/kg) or water was administered by oral gavage. On day 3, water or Example 7 (30 mg/kg) was administered for the third and final time by oral gavage followed by icv injection of either saline or 0.2 nmol human AgRP83-132. Food intake and body weight were monitored daily and animals were sacrificed on day 5.

[5] = Stability in Liver Microsomes (human); format: in vitro ADME; settings: 1 μM, 0.5 mg protein/mL, NADPH, 60 minutes, 37° C., pH 7.4
Experimental: as §1

[6] = Stability in Liver Microsomes (mouse); format: in vitro ADME; settings: 1 μM, 0.5 mg protein/mL, NADPH, 60 minutes, 37° C., pH 7.4
Experimental: as §1

[7] = Pharmacokinetic screening in rats (plasma and brain); settings: rat, 5 mg/kg PO
Experimental: as §2
Amount of compound: 5 mg/kg
as §3
Diet Status: Overnight fasting
as §4, §5, §6, §7, §8, §9

[8] = Stability in Liver Microsomes (rat); format: in vitro ADME; settings: 1 μM, 0.5 mg protein/mL, NADPH, 60 minutes, 37° C., pH 7.4
Experimental: as §1

[9] = 30 mg/kg oral gavage + icv saline compared to water + icv saline
[10] = 30 mg/kg oral gavage, icv 0.2 nmol human AgRP 83-132, 24 h
[11] = 0.2 nmol icv, water gavage, next 24 h

T1 sequence (P32245 whole entry): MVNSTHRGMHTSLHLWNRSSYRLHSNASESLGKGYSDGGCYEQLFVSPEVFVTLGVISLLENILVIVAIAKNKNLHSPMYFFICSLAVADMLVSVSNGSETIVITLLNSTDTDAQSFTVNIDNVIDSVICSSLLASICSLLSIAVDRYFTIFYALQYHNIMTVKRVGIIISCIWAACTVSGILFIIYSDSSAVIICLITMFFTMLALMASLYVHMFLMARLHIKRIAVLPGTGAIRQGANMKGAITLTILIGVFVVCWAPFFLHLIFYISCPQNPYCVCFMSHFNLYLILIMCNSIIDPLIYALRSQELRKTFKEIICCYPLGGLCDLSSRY

Compound | Plasma:Brain Ratio [1] | concentration at 2 h (in vivo; Brain - 2 hours (ng/g)) | concentration at 2 h (in vivo; Plasma - 2 hours (ng/mL)) | EC50 (human MC-4R) | Stability in Liver Microsomes (% remaining after 1 hour incubation) Dog [2] | Stability in Liver Microsomes (% remaining after 1 hour incubation) Monkey [3] | Stability in Liver Microsomes (% remaining after 1 hour incubation) Human [5] | Stability in Liver Microsomes (% remaining after 1 hour incubation) Mouse [6] | Stability in Liver Microsomes (% remaining after 1 hour incubation) Rat [8] | further results
C[C@H]1CC[C@H](Oc2ccc(-c3csc(N(CCC(=O)[O-])Cc4cccs4)n3)cc2)CC1.[Na+] [Reference Compound C, Sodium 3-({4-[4-(trans-4-methyl-cyclohexyloxy)-phenyl]-thiazol-2-yl}-thiophen-2-ylmethyl-amino)-propionate, reference compound] | 2.0:1 | 1240 ng/g | 2460 ng/mL | – | – | – | – | – | – | –
CCc1ccc(CN(CCC(=O)[O-])c2nc(C3CCC(c4ccccc4)CC3)cs2)s1.[Na+] (centres unmarked) [Example 39, Sodium; 3-{(5-ethyl-thiophen-2-ylmethyl)-[4-(4-phenyl-cyclohexyl)-thiazol-2-yl]-amino}-propionate] | 4.0:1 | 1910 ng/g | 7620 ng/mL | 275 nM | – | – | – | – | – | –
CCc1ccc(CN(CCC(=O)[O-])c2nc(C3CCC(C)CC3)cs2)s1.[Na+] (centres unmarked) [Example 5, Sodium; 3-{(5-ethyl-thiophen-2-ylmethyl)-[4-(4-methyl-cyclohexyl)-thiazol-2-yl]-amino}-propionate] | 2.6:1 | 1460 ng/g | 3780 ng/mL | 241 nM | – | – | – | – | – | –
Cc1ccc(CN(CCC(=O)[O-])c2nc([C@H]3CC[C@H](C(C)(C)C)CC3)cs2)s1.[Na+] [Example 7, Sodium; 3-[[4-(trans-4-tert-butyl-cyclohexyl)-thiazol-2-yl]-(5-methyl-thiophen-2-ylmethyl)-amino]-propionate] | – | – | – | 159 nM | 66% | 67% | 78% | 68% | 57% | increase of mean frequency of high-intensity lordosis postures, factor relative to saline (OVX rats): 3.5; increase of mean number of solicitations, factor relative to saline (OVX rats): 6; increase of mean frequency of high-intensity lordosis postures, factor relative to MT-II (OVX rats; MT-II 1 mg/kg SC): 3.2; increase of mean number of solicitations, factor relative to MT-II (OVX rats; MT-II 1 mg/kg SC): 2; effect on food intake, icv saline [4, 9]: no significant effect; effect on weight gain, icv saline [4, 9]: no significant effect; cumulative weight gain over the entire period, Example 7 + icv AgRP ([4]; 30 mg/kg oral gavage days 1, 2, 3, icv AgRP days 1 and 3, to day 5): less than 15 grams; effect on AgRP stimulated body weight gain [4, 10]: blocked; effect on AgRP stimulated food intake [4, 10]: blocked; concentration at 2 h ([7]; male, Sprague Dawley, plasma, po, 5 mg/kg, Plasma - 2 hours (ng/mL), 2 hour time point): 6460 ng/mL; Brain - 24 hours AUC (h * ng/g) ([7]; 24 hour study): ++++ (values above 20,000 h*ng/g)
CCc1ccc(CN(CCC(=O)[O-])c2nc([C@H]3CC[C@H](C(C)(C)C)CC3)cs2)s1.[Na+] [Example 8, Sodium; 3-[[4-(trans-4-tert-butyl-cyclohexyl)-thiazol-2-yl]-(5-ethyl-thiophen-2-ylmethyl)-amino]-propionate] | 3.3:1 | 1580 ng/g | 5160 ng/mL | 210 nM | 91% | 84% | 93% | 88% | 88% | –
O=C([O-])CCN(Cc1cccs1)c1nc(-c2ccc(-c3ccccc3)cc2)cs1.[Na+] [Reference Compound B, Sodium 3-[(4-biphenyl-4-yl-thiazol-2-yl)-thiophen-2-ylmethylamino]-propionate, reference compound] | 1.5:1 | 2110 ng/g | 3080 ng/mL | – | 95% | 64% | 82% | 99% | 91% | –
Cc1ccc(CN(CCC(=O)[O-])c2nc([C@H]3CC[C@H](C(C)C)CC3)cs2)s1.[Na+] [Example 9, Sodium; 3-[[4-(4-trans-isopropyl-cyclohexyl)-thiazol-2-yl]-(5-methyl-thiophen-2-ylmethyl)-amino]-propionate] | – | – | – | 274 nM | 92% | 74% | 82% | 69% | 66% | Plasma - 2 hours [1]: 3062 ng/mL
AgRP: AgRP83-132 (human, Phoenix Pharma, cat no. 003-53), Agouti related protein fragment given icv (SSRRCVRLHESCLGQQVPCCDPCATCYCRFFNAFCYCRKLGTAMNPCSRT; ends and bridges not checked; cysteine pairing not given here; UniProt O00253 83-132, looked up, fragment) [reference compound] | – | – | – | – | – | – | – | – | – | cumulative weight gain over the entire period, icv AGRP + H2O ([4]; 0.2 nmol icv days 1 and 3, water gavage, to day 5): above 30 grams; body weight gain after icv AgRP compared to saline controls [4, 11]: stimulated; food intake after icv AgRP compared to saline controls [4, 11]: stimulated
Cc1ccc(CN(CCC(=O)[O-])c2nc(C3(C)CCC(C)CC3)cs2)s1.[Na+] (centres unmarked) [Example 46, Sodium; 3-[[4-(1,4-dimethyl-cyclohexyl)-thiazol-2-yl]-(5-methyl-thiophen-2-ylmethyl)-amino]-propionate] | 1.9:1 | 536 ng/g | 1040 ng/mL | 76 nM | – | – | – | – | – | –
